For one data set, the system named is CD11b+Gr-1+MDSCs. Put plainly: MDSC frequency after MCL-1 inhibitor in tumor-bearing mice (FACS). It counts as in vivo. As for the experimental part:
FIG. 6. Potential immune modulation by MCL-1 inhibition. MCL-1 inhibitor reduces MDSCs in tumor-bearing mice. Tumor-bearing mice received BI-97C1 (Sabutoclax) (5 mg/kg or 20 mg/kg) i.p. or left untreated. 24 h later, splenic CD11b+GR-1+MDSCs were assessed by FACS.
Reduction of MDSCs could be explained by the direct cytotoxic effect of BI-97C1 (Sabutoclax), due to its ability to abrogate Bcl-2 protein functions.

For data set [1], the system named is IFN-γ-producing CD8+ T cells. Description: IFN-γ-producing CD8+ T cells in lymph nodes after i.v. protein (intracellular staining). It counts as in vivo, C57BL/6 mice. The settings on record: 10 μg i.v., 48 h later, lymph node cells. The protocol: (§1) A. CD8+ T cells were stimulated with anti-CD3/CD28 antibodies in the presence or absence of purified MDA-7/IL-24 protein (20 ng/ml). Cell proliferation was measured using 3H-thymidine (TdR) incorporation assays. P<0.05. B. C57BL/6 mice were injected i.v. with MDA-7/IL-24 protein (10 μg) or PBS. 48 h later, lymph node cells were assessed for IFN-γ-producing CD8+ T cells by intracellular staining.
(§2) The clinical application of immunotherapy is limited by the escape mechanisms cancer cells employ to avoid immune destruction due to immunoediting (e.g., selection of non-immunogenic or antigen loss cancer cell variants) and other immunosuppressive mechanisms at the tumor site. Since cancer-specific toxicity of MDA-7/IL-24 is antigen-independent, the delivery of a cancer-suicide agent in combination with T-cells may overcome the acquired tumor resistance to T-cell therapy. Intriguingly, MDA-7/IL-24 protein enhanced the proliferation of T cells upon TCR ligation (FIG. 8A). Treatment of mice with recombinant MDA-7/IL-24 protein increased the frequency of IFN-γ-expressing CD8+ T cells (FIG. 8B), supporting a role of MDA-7/IL-24 as a pro-Th 1 cytokine.

In a further data set the test system is CD8+ T cells. Description: T cell proliferation, 3H-thymidine (TdR) incorporation after anti-CD3/CD28 stimulation. It counts as cell-based. The settings on record: 20 ng/ml protein. As for the experimental part: as §1, §2

With `Cc1cc2c(C(=O)NC[C@H](C)c3ccccc3)c(O)c(O)cc2c(O)c1-c1c(C)cc2c(C(=O)NC[C@H](C)c3ccccc3)c(O)c(O)cc2c1O` [BI-97C1, Sabutoclax], the “frequency of CD11b+Gr-1+MDSCs” value in the data set on CD11b+Gr-1+MDSCs (single administration i.p. (5 mg/kg or 20 mg/kg), splenic MDSCs 24 h later) is given as “substantially reduced”. Besides, the toxicity entry in the data set with CD11b+Gr-1+MDSCs (single administration in tumor-bearing mice) is on record as “without inducing toxicity”.

B1: MDA-7/IL-24 protein: Melanoma differentiation associated gene-7/Interleukin-24, secreted protein of the IL-10 family (protein)
chain: QEFHFGPCQVKGVVPQKLWEAFWAVKDTMQAQDNITSARLLQQEVLQNVSDAESCYLVHTLLEFYLKTVFKNYHNRTVEVRTLKSFSTLANNFVLIVSQLQPSQENEMFSIRDSAHRRFLLFRRAFKQLDVEAALTKALGEVDILLTWMQKFYKL
For the molecule B1, the “frequency of IFN-γ-expressing CD8+ T cells” value in data set [1] is “increased”. Besides, in the data set with CD8+ T cells, the “proliferation of T cells upon TCR ligation” value was “enhanced”.

These data come from patent US20180280435A1, “T CELL DELIVERY OF MDA-7/IL-24 TO IMPROVE THERAPEUTIC ERADICATION OF CANCER AND GENERATE PROTECTIVE ANTITUMOR IMMUNITY” (VIRGINIA COMMONWEALTH UNIVERSITY, priority 2015, published 2018).
